Reference: paper PMC7702303, “Biochemical and transcript level differences between the three human phosphofructokinases show optimisation of each isoform for specific metabolic niches” (Biochemical Journal, 2020)
“And” between values parts separate entries of the source, which are not always exact repeats. Equal values may be shown once. Read-outs that look alike come from different tables or passages of the source. Each block holds one compound with its values, some of them ahead of it.

What was measured:
PFK = tested on: PFK; set-up: key to Effect (activator or inhibitor of PFK): “+” indicates activator; “-“ indicates inhibitor; settings: cited from earlier work; for Effect (activator or inhibitor of PFK): published literature, ref selected references in Supplementary Table 1; for IC50 or AC50 (activator) / IC50: ref Moreno-Sanchez et al., 2012; for IC50: read-out: IC50 or AC50 (inhibitor)
recombinant human PFK-M = target: T1, recombinant human PFK-M (Homo sapiens, UniProt P08237); assay: ALDO-TIM-G3PDH enzyme-linked kinetic assay, PFK-M; assay type: biochemical; set-up: VmaxATP + modulator / VmaxF6P + modulator / K0.5ATP + modulator / K0.5F6P + modulator: unit not given here
T1 construct: made in house; host or cells: PFK-deficient Saccharomyces cerevisiae
T1 sequence (P08237 1-780): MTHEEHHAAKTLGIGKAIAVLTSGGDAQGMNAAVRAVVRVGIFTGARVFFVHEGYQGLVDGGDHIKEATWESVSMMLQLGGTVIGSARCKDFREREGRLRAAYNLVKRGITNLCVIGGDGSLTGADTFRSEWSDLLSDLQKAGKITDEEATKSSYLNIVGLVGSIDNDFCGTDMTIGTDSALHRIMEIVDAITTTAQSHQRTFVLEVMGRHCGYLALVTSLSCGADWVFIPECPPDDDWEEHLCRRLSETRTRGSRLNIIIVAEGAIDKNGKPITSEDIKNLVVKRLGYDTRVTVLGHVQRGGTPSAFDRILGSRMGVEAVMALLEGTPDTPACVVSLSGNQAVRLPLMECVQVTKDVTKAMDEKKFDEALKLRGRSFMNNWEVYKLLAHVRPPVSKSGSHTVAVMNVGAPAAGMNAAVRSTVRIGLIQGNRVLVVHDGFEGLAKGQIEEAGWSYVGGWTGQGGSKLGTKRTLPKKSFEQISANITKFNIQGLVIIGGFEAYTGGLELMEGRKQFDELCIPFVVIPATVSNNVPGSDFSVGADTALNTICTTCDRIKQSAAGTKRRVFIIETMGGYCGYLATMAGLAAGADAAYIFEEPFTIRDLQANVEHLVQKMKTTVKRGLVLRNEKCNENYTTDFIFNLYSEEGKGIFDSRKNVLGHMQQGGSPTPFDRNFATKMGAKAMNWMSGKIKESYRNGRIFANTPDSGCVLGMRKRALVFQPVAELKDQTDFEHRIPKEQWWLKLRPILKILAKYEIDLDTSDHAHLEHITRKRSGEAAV
Method: Recombinant human PFKs were expressed in PFK-deficient Saccharomyces cerevisiae and purified using the methods described previously, adapting earlier materials and protocols. Production of PFK intended for use in ATP titration experiments used 1 mM F6P as a tetramer stabilising agent in protein purification and storage buffers. Production of PFK intended for use in F6P titration experiments used 1 mM ATP as a tetramer stabilising agent in protein purification and storage buffers. Experimental details on the purification and characterisation procedures including figures showing SDS–PAGE gels of the highly pure PFKs used in the kinetic experiments described in this work have been recently published.
Assay buffer consisted of 50 mM TEA, 100 mM KCl, 10 mM MgCl2, 1 mM Tris(2-carboxyethyl)phosphine hydrochloride (TCEP), 10% glycerol, pH 7.4. Assay mix consisted of 5 units/ml glycerol-3-phosphate dehydrogenase (G3PDH, Sigma–Aldrich G6880), 2.5 units/ml aldolase (Sigma–Aldrich A2714), 25 units/ml triosephosphate isomerase (TIM, Sigma–Aldrich T6258), and 1.25 mM NADH. ATP and F6P were obtained from Sigma–Aldrich (A2383 and F3627, respectively). For ATP titrations, 38 µl of buffer or ligand were added to a clear non-binding 96-well plate. 40 µl of assay mix containing 10 mM F6P (final concentration 4 mM) was added and the plate was incubated at 25°C for 5 min. An amount of 2 µl of PFK isoforms were added to each well from stock concentrations of 150 µg/ml and the reaction was immediately started with 20 µl of ATP at varying concentrations. For F6P titrations, 30 µl of buffer or ligand was added to a clear non-binding 96-well plate. An amount of 40 µl of assay mix containing 1.25 mM ATP (final concentration 0.5 mM) was added and the plate was incubated at 25°C for 5 min. An amount of 5 µl of PFK isoforms were added to each well from stock concentrations of 200 µg/ml and the reaction was immediately started with 20 µl F6P at varying concentrations. All ligands and substrates (including ATP) were used at pH 7.4. All metabolites were obtained from Sigma–Aldrich unless otherwise stated. […] A SpectraMax M5 Multi-Mode Microplate Reader was used to measure A340nm at 13 s intervals for 10 min. All experiments were performed in triplicate unless otherwise stated.
Time-dependent absorbance change was converted into rate of NADH oxidation (µM s^−1) or specific activity (µmol min^−1 mg protein^−1) using the Beer-Lambert law (molar extinction coefficient of NADH 6.22 mM^−1 cm^−1). The initial rate of reaction was used to avoid accumulation of ADP, which activates PFK, interfering with the determination of kinetic properties. Non-linear regression analysis was performed on substrate titration data using GraphPad Prism 7, with curves fitted using allosteric sigmoidal models, enabling determination of steady-state kinetic values.

[1] = first of three values marked *, asterisk not explained
[2] = second of three values marked *, asterisk not explained
[3] = third of three values marked *, asterisk not explained
[4] = ATP titration, F6P 4 mM, n = 6, mean (SD)
[5] = modulator 10 µM, ATP 0.5mM, N=3, mean (SD)
[6] = modulator 10 µM, F6P 4mM, N=3, mean (SD)
[7] = GTP titration, F6P 4 mM, n = 3, mean (SD)

- effect on PFK activity, in words (recombinant human PFK-M): inhibiting
- change in kcat^ATP/K0.5^ATP compared with control PFK without modulator (recombinant human PFK-M; modulator 600 µM): −52%
- change in kcat^F6P/K0.5^F6P compared with control PFK without modulator (recombinant human PFK-M; modulator 600 µM): −13%
SMILES: Nc1ncnc2c1ncn2[C@@H]1O[C@H](COP(=O)(O)OP(=O)(O)O)[C@@H](O)[C@H]1O [ADP]
- Effect (activator or inhibitor of PFK) (PFK): +

- decrease in K0.5^F6P by AMP (recombinant human PFK-M; F6P titration): near two-fold decrease
- change in kcat^ATP/K0.5^ATP compared with control PFK without modulator (recombinant human PFK-M; modulator 1200 µM): −12%
- change in kcat^F6P/K0.5^F6P compared with control PFK without modulator (recombinant human PFK-M; modulator 1200 µM): −25%
SMILES: Nc1ncnc2c1ncn2[C@@H]1O[C@H](COP(=O)(O)O)[C@@H](O)[C@H]1O [AMP]
- IC50 or AC50 (activator) (PFK; [1]): 860 µM
- Effect (activator or inhibitor of PFK) (PFK): +
- IC50 or AC50 (activator) (PFK; [2]): 5800 µM
- IC50 or AC50 (activator) (PFK; [3]): 1550 µM

- decrease in specificity constant (ATP inhibition) (recombinant human PFK-M; 1 mM ATP compared with 0.5 mM ATP): 21%
- increase in specific activity (recombinant human PFK-M; ATP concentration from 0.25 mM to 0.5 mM): 23%
- decrease in specific activity (recombinant human PFK-M; ATP concentration from 0.5 mM to 1 mM): 21%
- K0.5^ATP (recombinant human PFK-M; [4]): 151 µM and 152 µM and 151.8 (10.0) µM
- Vmax^ATP (recombinant human PFK-M; [4]): 38.4 (0.9) µmoles/min.mg
- kcat^ATP (recombinant human PFK-M; [4]): 56.0 (1.2) s^−1
- h (ATP) (recombinant human PFK-M; Hill value, ATP titration, F6P 4 mM, n = 6, mean (SD)): 1.03 (0.05)
SMILES: Nc1ncnc2c1ncn2[C@@H]1O[C@H](COP(=O)(O)OP(=O)(O)OP(=O)(O)O)[C@@H](O)[C@H]1O [ATP]
- IC50 (PFK; [1]): 1100 µM
- Effect (activator or inhibitor of PFK) (PFK): -
- IC50 (PFK; [2]): 2900 µM
- IC50 (PFK; [3]): 1750 µM
- kcat^ATP/K0.5^ATP (recombinant human PFK-M; [4]): 0.37 s^−1 µM^−1 and 0.37 (0.12) s^−1 µM^−1

- IC50 (recombinant human PFK-M; dose-response, read-out: IC50^citrate): 982 ± 109 µM
- change in kcat^ATP/K0.5^ATP compared with control PFK without modulator (recombinant human PFK-M; modulator 600 µM): +5%
- change in kcat^F6P/K0.5^F6P compared with control PFK without modulator (recombinant human PFK-M; modulator 600 µM): −36%
SMILES: O=C(O)CC(O)(CC(=O)O)C(=O)O [Citrate]
- IC50 (PFK; [1]): 5900 µM
- Effect (activator or inhibitor of PFK) (PFK): -
- IC50 (PFK; [2]): 490 µM
- IC50 (PFK; [3]): 6700 µM

- K0.5^F6P (recombinant human PFK-M; F6P titration, ATP 0.5 mM, n = 6, mean (SD)): 147 µM and 147.1 (13.6) µM
SMILES: O=C(CO)[C@@H](O)[C@H](O)[C@H](O)COP(=O)(O)O [F6P, fructose 6-phosphate]

- effect on PFK activity, in words (recombinant human PFK-M): strongly activated
- allosteric constant K0.5^ATP+F26BP/K0.5^ATP (recombinant human PFK-M; ATP titration): 1.10
- AC50 (recombinant human PFK-M; activation, read-out: AC50^F26BP): 6.27 µM
- change in kcat^ATP/K0.5^ATP compared with control PFK without modulator (recombinant human PFK-M; modulator 10 µM): −7.4%
- change in kcat^F6P/K0.5^F6P compared with control PFK without modulator (recombinant human PFK-M; modulator 10 µM): +82%
- K0.5F6P + modulator (recombinant human PFK-M; [5]): 109.6 (5.3)
- VmaxF6P + modulator (recombinant human PFK-M; [5]): 5.81 (0.09)
- K0.5ATP + modulator (recombinant human PFK-M; [6]): 165.2 (9.2)
- VmaxATP + modulator (recombinant human PFK-M; [6]): 38.80 (0.75)
SMILES: O=P(O)(O)OC[C@H]1O[C@@](CO)(OP(=O)(O)O)[C@@H](O)[C@@H]1O [F26BP, fructose 2,6-bisphosphate]
- IC50 or AC50 (activator) (PFK; first of three values marked *, unit inferred): 0.53 µM
- Effect (activator or inhibitor of PFK) (PFK): +
- IC50 or AC50 (activator) (PFK; second of three values marked *, unit inferred): 4.6 µM
- IC50 or AC50 (activator) (PFK; third of three values marked *, unit inferred): 0.58 µM

- K0.5^GTP (recombinant human PFK-M; [7]): 97 µM and 96.7 (8.0) µM
- Vmax^GTP (recombinant human PFK-M; [7]): 17.82 (0.44) µmoles/min.mg
- kcat^GTP (recombinant human PFK-M; [7]): 26.0 (0.6) s^−1
- h (GTP) (recombinant human PFK-M; Hill value, GTP titration, F6P 4 mM, n = 3, mean (SD)): 1.19 (0.12)
SMILES: Nc1nc2c(ncn2[C@@H]2O[C@H](COP(=O)(O)OP(=O)(O)OP(=O)(O)O)[C@@H](O)[C@H]2O)c(=O)[nH]1 [GTP]
- kcat^GTP/K0.5^GTP (recombinant human PFK-M; [7]): 0.27 s^−1 µM^−1 and 0.27 (0.08) s^−1 µM^−1

- change in kcat^ATP/K0.5^ATP compared with control PFK without modulator (recombinant human PFK-M; modulator 1100 µM): −11%
- change in kcat^F6P/K0.5^F6P compared with control PFK without modulator (recombinant human PFK-M; modulator 1100 µM): −7%
SMILES: C=C(OP(=O)(O)O)C(=O)O [PEP, phosphoenolpyruvate]
- Effect (activator or inhibitor of PFK) (PFK): -
